According to US10328087B2, “Formulations for solubilizing hormones” (TherapeuticsMD, Inc., priority 2015, dated 2019):
Marks after values point to notes of the source that are not given here.

Columns and labels:
[1] = tested on: ovariectomized female Crl:CD rats; experiment: Transdermal progesterone opposing estradiol effects on uterus and vagina in ovariectomized rats; assay type: in vivo, rat; conditions: for Endometrial Gland Density, LSMean / Endometrial Gland Size, LSMean / Endometrial Height, LSMean / Luminal Epithelial Cell Height, LSMean / Number of Mitotic Figures, LSMean: Day 8, EST 3 μg/kg SC alone, or with 10 mg/kg SC Prog, or with 3.125 mg/kg Dermal Prog
Description: Transdermally delivered progesterone blocked growth-related estrogenic effects on the endometrium and vagina in ovariectomized rats.
Thirty-two 8-week-old female Crl:CD® rats underwent ovariectomy 2 weeks prior to the start of the study. Rats were then randomly assigned to 4 groups of 8 rats each and dosed according to the schedule in Table 4. Control animals were dosed with saline or vehicle as noted. Two hours after the final dose on Day 8, the rats were humanely euthanized and the rats' vaginas and the distal portions of the rats' uterine horns were fixed and processed for histology and computer-aided morphometry.

[2] = Solubility of progesterone in solvent (concentration for clear solution); assay type: physicochemical
Description: Without wishing to be bound by any particular theory, it is believed that the compositions and methods described herein address the problems associated with known steroid hormone formulations such as poor solubility, poor bioavailability, and poor stability. More specifically, it has now been discovered that terpenes are unexpectedly effective in enhancing the solubility of insoluble steroid hormones such as progesterone and likewise act as excellent penetration enhancers for these same compounds. […] The compositions can also have any combination of enhanced dissolution rates, penetration capabilities, absorption, and bioavailability.

[3] = estradiol-treated ovariectomized rats, progesterone SC or transdermally

| Structure (SMILES) | Endometrial Gland Density, LSMean ([1]; ovariectomized rats) | Endometrial Gland Size, LSMean ([1]; ovariectomized rats) | Endometrial Height, LSMean ([1]; ovariectomized rats) | Luminal Epithelial Cell Height, LSMean ([1]; ovariectomized rats) | Number of Mitotic Figures, LSMean ([1]; ovariectomized rats) | effect on the uterus (organ weight measurements and histology) ([1]; unopposed estradiol treatment, ovariectomized rats) | Concentration of Progesterone (mg/g) for clear solution ([2]; solvent Absolute Ethanol) [mg/g] | Concentration of Progesterone (mg/g) for clear solution ([2]; solvent d-Limonene) [mg/g] | uterine weight ([1]; estradiol-treated ovariectomized rats receiving progesterone SC or transdermally, FIGS. 5 and 6) | endometrial gland density compared to unopposed estradiol [1, 3] | luminal epithelial cell height compared to unopposed estradiol [1, 3] | estrogen-specific cellular aspects in the uterus and vagina ([1]; histology, estradiol-treated ovariectomized rats receiving progesterone SC or transdermally) |
| --- | --- | --- | --- | --- | --- | --- | --- | --- | --- | --- | --- | --- |
| C[C@]12CC[C@@H]3c4ccc(O)cc4CC[C@H]3[C@@H]1CC[C@@H]2O [EST, (17β)-estra-1,3,5(10)-triene-3,17-diol] | 7.09^b cells/mm^2 | 4540^b μm^2 | 418^b μm | 47.8^b μm | 921^b | hypertrophy | – | – | – | – | – | – |
| CC(=O)[C@H]1CC[C@H]2[C@@H]3CCC4=CC(=O)CC[C@]4(C)[C@H]3CC[C@]12C [Progesterone, pregn-4-ene-3,20-dione] | 10.3^b,d cells/mm^2 | 4390^b μm^2 | 436^b μm | 31.91^b,d μm | 595^b,d | – | 57 | 204.0 | Significantly reduced | significant increase | significant reduction | not detected |
